Reference: US9655887B2, “Pharmaceutical composition and the use thereof, and application regime of said pharmaceutical composition for on-demand contraception” (BAYER PHARMA AKTIENGESELLSCHAFT, priority 2013, dated 2017)

target: EP2 subtype of the human PGE2 receptor (hEP2 receptor) (Homo sapiens, UniProt P43116); assay: cAMP antagonism test, human prostaglandin E2 (subtype EP2) receptor signal; assay type: cell-based
Description: 1. Detection of Antagonism to the Human Prostaglandin E2 (Subtype EP2) Receptor Signal
The binding of PGE2 to the EP2 subtype of the human PGE2 receptor induces the activation of membrane-located adenylate cyclases and leads to the formation of cAMP. In the presence of the phosphodiesterase inhibitor IBMX, the cAMP accumulated owing to this stimulation and released by cell lysis is used in a competitive detection method. In this test, the cAMP present in the lysate competes with a fluorescence-labelled cAMP (cAMP-d2) for binding to an Eu cryptate-labelled anti-cAMP antibody.
In the absence of cellular cAMP, a maximal signal is produced, which is attributable to the binding of this cAMP-d2 molecule to the antibody. After excitation of the […] at 337 nm, there is a fluorescence resonance energy transfer (FRET) to the Eu cryptate molecules of the anti-cAMP antibody (labelled therewith), followed by a long-lasting emission signal at 665 nm (and at […]). Both signals are measured in a suitable measurement instrument with a time delay, i.e. after decay of the background fluorescence. Any increase in the low FRET signal caused by prostaglandin E2 administration (measured as well ratio change=emission665nm/emission620nm*10000) indicates the action of antagonists.
1.2.1. Test for Antagonism (Data Per Well of a 384-Well Plate):
To a test plate with the substance solutions already added (0.05 μl; 100% DMSO, concentration range from 0.8 nM-16.5 nM) were added 4 μl of a cAMP-d2/cell suspension (625000 cells/ml). After a 20-minute preincubation at room temperature (RT), 2 μl of a 3×PGE2 solution (1.5 nM, in PBS-IBMX) were added and incubated in the presence of the agonist for a further 60 mins at RT (volume: […]). Next the reaction was stopped by addition of 2 μl of lysis buffer and incubated for a further 20 mins at RT before the actual measurement (volume: ˜8 μl).

Sequence of EP2 subtype of the human PGE2 receptor (hEP2 receptor) (P43116 whole entry): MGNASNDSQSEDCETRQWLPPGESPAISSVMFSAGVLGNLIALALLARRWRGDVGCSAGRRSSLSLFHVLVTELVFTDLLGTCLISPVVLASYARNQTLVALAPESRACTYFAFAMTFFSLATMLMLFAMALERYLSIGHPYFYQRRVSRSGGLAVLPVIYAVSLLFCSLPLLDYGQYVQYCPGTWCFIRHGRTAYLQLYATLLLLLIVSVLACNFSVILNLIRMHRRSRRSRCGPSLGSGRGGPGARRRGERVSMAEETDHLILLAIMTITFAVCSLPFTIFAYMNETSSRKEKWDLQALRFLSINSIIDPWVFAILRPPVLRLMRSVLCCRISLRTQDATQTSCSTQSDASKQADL

IC50, > 50 nM:
COCCNC(=O)c1ccc2nn(CC3CCN(C(=O)c4ccc(OC(C)(C)C)cc4)CC3)cc2c1C [Example E2, 2-{[1-(4-tert-butoxybenzoyl)piperidin-4-yl]methyl}-N-(2-methoxyethyl)-4-methyl-2H-indazole-5-carboxamide]
COCCNC(=O)c1ccc2nn(CC3CCN(C(=O)c4ccc(Oc5ccc(F)cc5)cc4)CC3)cc2c1C [Example E3, 2-({1-[4-(4-fluorophenoxy)benzoyl]piperidin-4-yl}methyl)-N-(2-methoxyethyl)-4-methyl-2H-indazole-5-carboxamide]
COCCNC(=O)c1ccc2nn(CC3CCN(C(=O)c4ccc(-c5ccc(F)cc5)cc4)CC3)cc2c1C [Example E5, 2-({1-[(4′-fluorobiphenyl-4-yl)carbonyl]piperidin-4-yl}methyl)-N-(2-methoxyethyl)-4-methyl-2H-indazole-5-carboxamide]
COCCNC(=O)c1ccc2nn(CC3CCN(C(=O)c4ccc(OC)cc4F)CC3)cc2c1C [Example E7, 2-{[1-(2-fluoro-4-methoxybenzoyl)piperidin-4-yl]methyl}-N-(2-methoxyethyl)-4-methyl-2H-indazole-5-carboxamide]
COCCNC(=O)c1ccc2nn(CC3CCN(C(=O)c4ccc(Br)cc4F)CC3)cc2c1C [Example E8, 2-{[1-(4-bromo-2-fluorobenzoyl)piperidin-4-yl]methyl}-N-(2-methoxyethyl)-4-methyl-2H-indazole-5-carboxamide]
COCCNC(=O)c1ccc2nn(CC3CCN(C(=O)c4ccc(C)cc4F)CC3)cc2c1C [Example E9, 2-{[1-(2-fluoro-4-methylbenzoyl)piperidin-4-yl]methyl}-N-(2-methoxyethyl)-4-methyl-2H-indazole-5-carboxamide]
COCCNC(=O)c1ccc2nn(CC3CCN(C(=O)c4ccc(C(F)(F)F)cc4F)CC3)cc2c1C [Example E10, 2-({1-[2-fluoro-4-(trifluoromethyl)benzoyl]piperidin-4-yl}methyl)-N-(2-methoxyethyl)-4-methyl-2H-indazole-5-carboxamide]
COCCNC(=O)c1ccc2nn(CC3CCN(C(=O)c4ccc(S(F)(F)(F)(F)F)cc4)CC3)cc2c1C [Example E11, N-(2-methoxyethyl)-4-methyl-2-({1-[4-(pentafluoro-λ^6-sulphanyl)benzoyl]piperidin-4-yl}methyl)-2H-indazole-5-carboxamide]
COCCNC(=O)c1ccc2nn(CC3CCN(C(=O)c4ccc(C)cc4)CC3)cc2c1C [Example E12, N-(2-methoxyethyl)-4-methyl-2-{[1-(4-methylbenzoyl)piperidin-4-yl]methyl}-2H-indazole-5-carboxamide]
COCCNC(=O)c1ccc2nn(CC3CCN(C(=O)c4ccc(Oc5ccc(Cl)cc5)cc4)CC3)cc2c1C [Example E13, 2-({1-[4-(4-chlorophenoxy)benzoyl]piperidin-4-yl}methyl)-N-(2-methoxyethyl)-4-methyl-2H-indazole-5-carboxamide]
COCCNC(=O)c1ccc2nn(CC3CCN(C(=O)c4ccc(Oc5ccc(C)cc5)cc4)CC3)cc2c1C [Example E14, N-(2-methoxyethyl)-4-methyl-2-({1-[4-(4-methylphenoxy)benzoyl]piperidin-4-yl}-methyl)-2H-indazole-5-carboxamide]
COCCNC(=O)c1ccc2nn(CC3CCN(C(=O)c4ccc(Oc5ccc(C(C)(C)C)cc5)cc4)CC3)cc2c1C [Example E15, 2-({1-[4-(4-tert-butylphenoxy)benzoyl]piperidin-4-yl}methyl)-N-(2-methoxyethyl)-4-methyl-2H-indazole-5-carboxamide]
COCCNC(=O)c1ccc2nn(CC3CCN(C(=O)c4ccc(Oc5ccc(OC)cc5)cc4)CC3)cc2c1C [Example E17, N-(2-methoxyethyl)-2-({1-[4-(4-methoxyphenoxy)benzoyl]piperidin-4-yl}methyl)-4-methyl-2H-indazole-5-carboxamide]
